# pEC50: −log10 of the molar value.
# Experiment: Inhibition of quinpirole stimulation of mitogenesis at human dopamine D2 receptors expressed in Chinese hamster ovary cells
row,pEC50,Compound
1,7.86,"O=C(NC/C=C/CN1CCN(c2cccc(Cl)c2Cl)CC1)c1ccc([N+](=O)[O-])cc1 [N-{(E)-4-[4-(2,3-Dichloro-phenyl)-piperazin-1-yl]-but-2-enyl}-4-nitro-benzamide]"
2,7.21,"COc1ccc(C(=O)NC/C=C/CN2CCN(c3cccc(Cl)c3Cl)CC2)cc1 [N-{4-[4-(2,3-Dichloro-phenyl)-piperazin-1-yl]-but-2-enyl}-4-methoxy-benzamide]"
3,6.79,"O=C(NC/C=C/CN1CCN(c2cccc(Cl)c2Cl)CC1)c1ccc(I)cc1 [N-{4-[4-(2,3-Dichloro-phenyl)-piperazin-1-yl]-but-2-enyl}-4-iodo-benzamide]"
